Data on one molecule can be found in PMC4382313 (Chembiochem : a European journal of chemical biology, 2014).

The structures appear in SMILES notation.

This assay addresses WelP2 (Hapalosiphon welwitschii, UniProt A0A067YX78). Briefly: in vitro prenyl diphosphate synthase assay. The class given is biochemical. Conditions: product formed; details in SI Methods.

In the case of `CC(C)=CCC/C(C)=C/COP(=O)(O)OP(=O)(O)O` [GPP], the “in vitro prenyl diphosphate synthase assay” value is reported as “demonstrated that WelP2 is a dedicated geranyl diphosphate synthase to provide GPP (SI Methods)”.
